# The OligoGym collection
# “And” between values parts separate entries of the source, which are not always exact repeats. Equal values may be shown once. After the bases stand the sugars from the 5' end (letter, count) and the backbone: PS all phosphorothioate, else s phosphorothioate and o phosphodiester by linkage. Methylation of C is not given here. k = constrained ethyl (cEt); d = 2'-deoxy (DNA)
# Molecular target: MALAT1
# Conditions: ASO, A431, 0.005 µM
row,Sequence,target mRNA inhibition
1,"CCACTTACTGGTTTAA (sugars k3 d10 k3, PS)",33%
2,"TCAGTACGAAACTCCC (sugars k3 d10 k3, PS)",41%
3,"AAAGACCTCGACACCA (sugars k3 d10 k3, PS)",15%
4,"ACACTGGTTCCTGGAA (sugars k3 d10 k3, PS)",48%
5,"CCCAAGATTGCCCCAA (sugars k3 d10 k3, PS)",-7%
6,"CCAGCAAAATGTACTC (sugars k3 d10 k3, PS)",46%
7,"CTGCAATCATAAACTA (sugars k3 d10 k3, PS)",10%
8,"CCGCCGCCTTTGTGAG (sugars k3 d10 k3, PS)",25%
9,"CAAATCCTGATCTGGT (sugars k3 d10 k3, PS)",24% and 21%
10,"ATGACCCTACTGAAGA (sugars k3 d10 k3, PS)",15%
11,"CCTGTGGTGGTCTGAT (sugars k3 d10 k3, PS)",54%
12,"GCATTCTAATAGCAGC (sugars k3 d10 k3, PS)",10% and 21%
13,"CACAGGAACAAGTCCT (sugars k3 d10 k3, PS)",16%
14,"CCATGGTTGTCCTACT (sugars k3 d10 k3, PS)",10%
15,"CCCCGGAACTTTTAAA (sugars k3 d10 k3, PS)",23%
16,"ACCTTTTACTCTGATC (sugars k3 d10 k3, PS)",34%
17,"ACTAGTGGTTCCCAAT (sugars k3 d10 k3, PS)",33%
18,"CAATATCTTAGTAACC (sugars k3 d10 k3, PS)",29%
19,"CAGTACGAAACTCCCC (sugars k3 d10 k3, PS)",30%
20,"CCAAATTGCACTCGCT (sugars k3 d10 k3, PS)",36%
21,"TGTGATAGTTCAGGGC (sugars k3 d10 k3, PS)",-12%
22,"CTAACTTCTGCACCAC (sugars k3 d10 k3, PS)",38%
23,"TTAAATTACACCAGTC (sugars k3 d10 k3, PS)",50% and 65%

row,Sequence,target mRNA inhibition
1,"CCCTTTACACCTCAGT (sugars k3 d10 k3, PS)",25%
2,"ACGGATTTTTACCAAC (sugars k3 d10 k3, PS)",34%
3,"GTTTCCTAGCTTGTCT (sugars k3 d10 k3, PS)",57%
4,"GCCCACAAGGATCCAA (sugars k3 d10 k3, PS)",15%
5,"TTACACCTCAGTACGA (sugars k3 d10 k3, PS)",15%
6,"CTGAGTGAAGTGTACT (sugars k3 d10 k3, PS)",48%
7,"AGGCAAGTCCTCATTA (sugars k3 d10 k3, PS)",16%
8,"TTCTACCGTTTTTCAG (sugars k3 d10 k3, PS)",10%
9,"TACTTAAATTACTAGC (sugars k3 d10 k3, PS)",28%
10,"AATTAAATTGATGGGC (sugars k3 d10 k3, PS)",17%
11,"ACGGGTCATCAAACAC (sugars k3 d10 k3, PS)",14%
12,"CCTGAAGTCAAGACAA (sugars k3 d10 k3, PS)",0%
13,"CCGGAACTTTTAAAAT (sugars k3 d10 k3, PS)",13%
14,"AATTGTAGTTAATGTC (sugars k3 d10 k3, PS)",36%
15,"ATCAACAAAAGCCCAC (sugars k3 d10 k3, PS)",-12%
16,"CCACACACTACCATAT (sugars k3 d10 k3, PS)",17%
17,"TACACCCAGTGGCTCA (sugars k3 d10 k3, PS)",30%
18,"AATAGCAGCGGGATCA (sugars k3 d10 k3, PS)",34%
19,"TAGCAGCGGGATCAGA (sugars k3 d10 k3, PS)",32%
20,"TGAAGTGTACTATCCC (sugars k3 d10 k3, PS)",72% and 88%
21,"ACCTTCCGCCGCCTCT (sugars k3 d10 k3, PS)",33%
22,"AGCGAATGGCTTTGTC (sugars k3 d10 k3, PS)",5%
23,"CGGGATCAGAACAGTA (sugars k3 d10 k3, PS)",24%

row,Sequence,target mRNA inhibition
1,"CCGCACAGCTCGGGCG (sugars k3 d10 k3, PS)",14%
2,"ACCCACAAACTTGCCA (sugars k3 d10 k3, PS)",-2%
3,"CTTCTGCACCACCAGA (sugars k3 d10 k3, PS)",13%
4,"ACTTTCCATTACGCAA (sugars k3 d10 k3, PS)",9%
5,"AGTTTTCAGCAGTAGG (sugars k3 d10 k3, PS)",-21%
6,"AATTTTGAGTATGCTG (sugars k3 d10 k3, PS)",54% and 71%
7,"CACTTATCCCTAACAT (sugars k3 d10 k3, PS)",10%
8,"ACAACATATTGCCGAC (sugars k3 d10 k3, PS)",10%
9,"AGACAAGATTCATGAG (sugars k3 d10 k3, PS)",50%
10,"TTAATCACCTTCGGTT (sugars k3 d10 k3, PS)",27%
11,"TTATTCCAGGATTAAT (sugars k3 d10 k3, PS)",-5%
12,"TCAAACTAAGCTACTA (sugars k3 d10 k3, PS)",-1%
13,"TTTATAGACGGAGAAC (sugars k3 d10 k3, PS)",-6%
14,"AAAAACTTATCTGCGG (sugars k3 d10 k3, PS)",49%
15,"CAAACTTGCCATCTAC (sugars k3 d10 k3, PS)",11%
16,"GCCCCAGTCCTTTACA (sugars k3 d10 k3, PS)",3%
17,"CCCAACTGCTTGCAGT (sugars k3 d10 k3, PS)",9%
18,"CCAGGATTAATGTAGT (sugars k3 d10 k3, PS)",71% and 55%
19,"TCACGGATTTTTACCA (sugars k3 d10 k3, PS)",28%
20,"TATTTAAGAACTCCAC (sugars k3 d10 k3, PS)",26%
21,"CGAGTTCAAGTGGCCT (sugars k3 d10 k3, PS)",18%
22,"GCAATATCTTAGTAAC (sugars k3 d10 k3, PS)",23%
23,"CTATCTTCTATACTTC (sugars k3 d10 k3, PS)",24%

row,Sequence,target mRNA inhibition
1,"GATTTTAAGGTTGCAT (sugars k3 d10 k3, PS)",55% and 38%
2,"CGGAAATTTTTCTACC (sugars k3 d10 k3, PS)",8%
3,"TGTCAATTAATGCTAG (sugars k3 d10 k3, PS)",42%
4,"GTGTTCGCAGACAAAG (sugars k3 d10 k3, PS)",10%
5,"ATCCAAGCTACTGGCT (sugars k3 d10 k3, PS)",40%
6,"GTTGATATTTAAGAAC (sugars k3 d10 k3, PS)",-15%
7,"AGACCTCGACACCATC (sugars k3 d10 k3, PS)",46%
8,"CATGGAAAGCGAGTTC (sugars k3 d10 k3, PS)",20%
9,"CCTTCGGTGCCTTTAG (sugars k3 d10 k3, PS)",12%
10,"TTATGGAACTTGAATG (sugars k3 d10 k3, PS)",7%
11,"ACTATAGCATCTGTGG (sugars k3 d10 k3, PS)",9%
12,"TCCCCCCCGCCTCAGT (sugars k3 d10 k3, PS)",16%
13,"ACCTTGAAACCGATTA (sugars k3 d10 k3, PS)",45%
14,"GGATCATTAAGCCACT (sugars k3 d10 k3, PS)",15%
15,"ATAGTACTATAGCATC (sugars k3 d10 k3, PS)",30%
16,"CTTATGGAACTTGAAT (sugars k3 d10 k3, PS)",-5%
17,"GCAGTTATATTAGGTT (sugars k3 d10 k3, PS)",15%
18,"AAGGCTTCAGTCCCCT (sugars k3 d10 k3, PS)",14%
19,"GAAATCCCCTAGGGAA (sugars k3 d10 k3, PS)",6%
20,"CTAACATAGTTCAACC (sugars k3 d10 k3, PS)",16%
21,"GTTAGGTATGAGCTTC (sugars k3 d10 k3, PS)",15%
22,"TACTCCATGAAGAAGC (sugars k3 d10 k3, PS)",-26%
23,"CGTGTGGTTGCCAAGC (sugars k3 d10 k3, PS)",45%

row,Sequence,target mRNA inhibition
1,"GTTCGAGAAATCGGAG (sugars k3 d10 k3, PS)",15%
2,"GGAATGGCCAGCCTAT (sugars k3 d10 k3, PS)",17%
3,"TCCTTATTTAGAGGGC (sugars k3 d10 k3, PS)",29%
4,"ACCTCCGTCATGTTTT (sugars k3 d10 k3, PS)",43%
5,"CCTTATTTAGAGGGCC (sugars k3 d10 k3, PS)",33%
6,"TAATGGTTTTCTACAC (sugars k3 d10 k3, PS)",40%
7,"GAAGAGCATTGGAGAT (sugars k3 d10 k3, PS)",49%
8,"TCTGACTTTGTATGTA (sugars k3 d10 k3, PS)",48%
9,"AATTTCCTTAGTTGGC (sugars k3 d10 k3, PS)",68% and 93%
10,"GTAGTAAGAATCTCAG (sugars k3 d10 k3, PS)",80% and 71%
11,"TAGGCTTTAAATGACG (sugars k3 d10 k3, PS)",26%
12,"AAATCGCCATGGAAAG (sugars k3 d10 k3, PS)",1%
13,"TTGAGGGACAGTAGGT (sugars k3 d10 k3, PS)",21%
14,"AAGAGATACCTGTCTG (sugars k3 d10 k3, PS)",22%
15,"AGGCTCGATGGAAAAA (sugars k3 d10 k3, PS)",28%
16,"CCCGCCTCAGTTACAC (sugars k3 d10 k3, PS)",4%
17,"TTGACAAGCAATTAAC (sugars k3 d10 k3, PS)",7%
18,"CGAAGACACAGAGACC (sugars k3 d10 k3, PS)",10%
19,"GACTTGCTCCCAAGAC (sugars k3 d10 k3, PS)",7%
20,"TGGACATTGCCTCTTC (sugars k3 d10 k3, PS)",29%
21,"AAGATAGCAGCACAAC (sugars k3 d10 k3, PS)",12%
22,"GTACACCCAGTGGCTC (sugars k3 d10 k3, PS)",6%
